Assay results reported in ChEMBL document CHEMBL1806350, “Probes for narcotic receptor mediated phenomena. 43. Synthesis of the ortho-a and para-a, and improved synthesis and optical resolution of the ortho-b and para-b oxide-bridged phenylmorphans: compounds with moderate to low opioid-receptor affinity” (Bioorg Med Chem, 2011).
pKi: −log10 of the molar value.

Assays:
Mu-type opioid receptor [1] = biological target: T1, Mu-type opioid receptor (Homo sapiens, UniProt P35372); assay: biochemical; format: cell-based, CHO
[2] = biological target: Delta-type opioid receptor (Homo sapiens, UniProt P41143); assay: Displacement of [125I]IOXY from human delta opioid receptor expressed in CHO cells coexpressing human recombinant DOR after 2 hrs by liquid scintillation counting; format: cell-based
[3] = biological target: T2, Kappa-type opioid receptor (Homo sapiens, UniProt P41145); assay: Displacement of [125I]IOXY from human kappa opioid receptor expressed in CHO cells coexpressing human recombinant KOP after 2 hrs by liquid scintillation counting; format: cell-based
Mu-type opioid receptor [4] = biological target: T1, Mu-type opioid receptor; settings: CHO
Description: Antagonist activity at human mu opioid receptor expressed in CHO cells coexpressing human recombinant MOR after 3 hrs by [35S]GTPgammaS binding assay

[5] = biological target: T2, Kappa-type opioid receptor; settings: CHO
Description: Antagonist activity at human kappa opioid receptor expressed in CHO cells coexpressing human recombinant KOP after 3 hrs by [35S]GTPgammaS binding assay

T1 sequence (P35372 whole entry): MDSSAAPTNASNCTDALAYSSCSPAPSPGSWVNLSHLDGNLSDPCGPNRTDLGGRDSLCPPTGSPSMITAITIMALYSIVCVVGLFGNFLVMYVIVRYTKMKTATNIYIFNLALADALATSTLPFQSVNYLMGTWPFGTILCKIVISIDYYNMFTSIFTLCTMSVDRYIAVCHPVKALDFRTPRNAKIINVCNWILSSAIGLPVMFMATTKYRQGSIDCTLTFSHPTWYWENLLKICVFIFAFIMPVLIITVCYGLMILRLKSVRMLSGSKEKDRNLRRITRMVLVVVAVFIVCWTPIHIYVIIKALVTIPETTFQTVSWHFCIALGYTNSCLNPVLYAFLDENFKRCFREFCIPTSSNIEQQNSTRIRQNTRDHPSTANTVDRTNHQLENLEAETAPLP
Delta-type opioid receptor, sequence (P41143 whole entry): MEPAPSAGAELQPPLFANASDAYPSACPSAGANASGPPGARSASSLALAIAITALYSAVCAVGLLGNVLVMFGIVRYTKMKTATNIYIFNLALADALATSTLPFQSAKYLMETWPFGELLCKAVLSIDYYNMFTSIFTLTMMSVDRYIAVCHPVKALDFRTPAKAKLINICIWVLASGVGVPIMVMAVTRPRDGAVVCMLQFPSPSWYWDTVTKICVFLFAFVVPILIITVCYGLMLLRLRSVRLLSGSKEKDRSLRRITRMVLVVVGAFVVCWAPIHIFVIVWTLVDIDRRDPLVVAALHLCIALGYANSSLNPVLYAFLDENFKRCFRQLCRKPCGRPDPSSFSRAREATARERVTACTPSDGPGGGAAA
T2 sequence (P41145 whole entry): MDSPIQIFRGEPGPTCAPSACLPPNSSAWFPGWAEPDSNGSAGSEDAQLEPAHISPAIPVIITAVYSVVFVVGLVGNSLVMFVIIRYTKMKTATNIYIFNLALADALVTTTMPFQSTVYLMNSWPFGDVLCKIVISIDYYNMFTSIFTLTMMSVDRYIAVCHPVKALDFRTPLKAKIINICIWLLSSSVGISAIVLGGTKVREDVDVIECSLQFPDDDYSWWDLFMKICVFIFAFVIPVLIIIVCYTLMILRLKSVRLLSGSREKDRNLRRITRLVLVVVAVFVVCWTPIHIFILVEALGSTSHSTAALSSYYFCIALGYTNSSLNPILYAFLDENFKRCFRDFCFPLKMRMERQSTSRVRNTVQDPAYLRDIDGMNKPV

Row | Compound | pKi (Mu-type opioid receptor [1]) | pKi [2] | pKi [3] | Ke (Mu-type opioid receptor [4]) | Ke [5] | pKi (Mu-type opioid receptor [1]; cho) | pKi ([2]; cho) | pKi ([3]; cho)
1 | Oc1ccc2c(c1)[C@]13CCN(CCc4ccccc4)[C@H](CC[C@@H]1O2)C3 | 6.60 | < 5.30 | 6.70 | 47 nM | 100 nM |  |  | 
2 | Oc1cccc2c1O[C@@H]1CC[C@@H]3C[C@]21CCN3CCc1ccccc1 (racemic) | 6.78 | < 5.31 | 6.77 | 274 nM | 163 nM |  |  | 
3 | Oc1cccc2c1O[C@@H]1CC[C@H]3C[C@@]21CCN3CCc1ccccc1 | 7.31 | < 5.30 | 7.38 | 31 nM | 22 nM |  |  | 
4 | CN1CC[C@]23C[C@H]1CC[C@H]2Oc1c(O)cccc13 (racemic) | < 5.55 | < 5.31 | 5.12 |  |  |  |  | 
5 | Oc1ccc2c(c1)[C@@]13CCN(CCc4ccccc4)[C@@H](CC[C@H]1O2)C3 | 6.45 | < 5.30 | 6.99 | 227 nM | 103 nM |  |  | 
6 | Oc1cccc2c1O[C@H]1CC[C@@H]3C[C@]21CCN3CCc1ccccc1 |  |  |  | 328 nM | 761 nM | 6.42 | < 5.30 | 6.44
7 | Oc1ccc2c(c1)[C@]13CCN(CCc4ccccc4)[C@H](CC[C@H]1O2)C3 (racemic) | 6.31 | < 5.31 | 7.01 | 23 nM | 46 nM |  |  | 
8 | CN1CC[C@]23C[C@H]1CC[C@H]2Oc1ccc(O)cc13 (racemic) | < 5.55 | < 5.31 | < 5.07 |  |  |  |  | 
